Results: patent US4016159A, “Acylamino-cephem-carboxylic acids containing an amidino or guanidino group in the molecule” (Hoechst Aktiengesellschaft, priority 1973, dated 1977)
≈ marks a conversion by molar mass, not a printed value.

Key:
Type in all cases: cell-based
[1] = tested on: Staphylococcus aureus SG 511; assay: Minimum inhibition concentration (MIC), Table 5; conditions: Staphylococcus aureus, SG511, Germ: Staphylococcus aureus SG 511; read-out: Minimum inhibition concentration (MIC)
Description: (§1) Minimum inhibition concentration (MIC) in γ/ml
Germ: Staphylococcus aureus SG 511

Streptococcus D = assay: Minimum inhibition concentration (MIC), Table 4; conditions: Streptococcus, Germ: Streptococcus D; read-out: Minimum inhibition concentration (MIC)
Description: as §1

Streptococcus pyogenes A = assay: Minimum inhibition concentration (MIC), Table 3; conditions: Germ: Streptococcus pyogenes A; read-out: Minimum inhibition concentration MIC
Description: Minimum inhibition concentration MIC in γ/ml
Germ: Streptococcus pyogenes A

[2] = tested on: Staphylococcus aureus 285; assay: Minimum inhibition concentration (MIC), Table 1; conditions: Staphylococcus aureus, 285, Germ: Staphylococcus aureus 285; read-out: Minimum inhibition concentration (MIC)
Description: as §1
Germ: Staphylococcus aureus 285

SMILES | MIC [1] [mg/L] | MIC (Streptococcus D) [mg/L] | MIC (Streptococcus pyogenes A) [mg/L] | MIC [2] [mg/L]
O=C(COc1ccc(C2=NCCCN2)cc1)NC1C(=O)N2C(C(=O)O)=C(CSc3nnc(-c4ccccc4)o3)CSC12 (stereo not shown) [Example 51, 3-[(5-phenyl-1,3,4-oxadiazole-2-yl)-thiomethyl]-7-[4-(1,4,5,6-tetrahydropyrimide-2-yl)-phenoxyacetamido]-Δ 3-cephem-4-carboxylic acid] | 0.0196 to 0.0391 (≈ 0.0323 to 0.0644 µM) | 0.196 to 6.25 (≈ 0.323 to 10.3 µM) | 0.000391 to 0.0078 (≈ 0.000644 to 0.0129 µM) | 0.156 to 0.391 (≈ 0.257 to 0.644 µM)
Cc1nnc(SCC2=C(C(=O)O)N3C(=O)C(NC(=O)Cc4ccc(C(=N)N)cc4)C3SC2)s1 (stereo not shown) [Example 26, 3-[(5-methyl-1,3,4-thiadiazole-2-yl)-thiomethyl]-7-(4-amidinophenylacetamido)-Δ 3-cephem-4-carboxylic acid] | 0.0625 to 0.078 (≈ 0.124 to 0.155 µM) | 10 to 50 (≈ 19.8 to 99.1 µM) | – | –
N=C(N)c1ccc(OCC(=O)NC2C(=O)N3C(C(=O)O)=C(CSc4nncs4)CSC23)cc1 (stereo not shown) [Example 63, 3-[(1,3,4-thiadiazole-2-yl)-thiomethyl]-7-(4amidinophenoxyacetamido)-Δ 3-cephem-4-carboxylic acid] | 0.0625 to 0.078 (≈ 0.123 to 0.154 µM) | 10 to 50 (≈ 19.7 to 98.7 µM) | 0.008 to 0.0156 (≈ 0.0158 to 0.0308 µM) | 0.156 to 0.391 (≈ 0.308 to 0.772 µM)
CCCCc1csc(SCC2=C(C(=O)O)N3C(=O)C(NC(=O)Cc4ccc(C5=NCCN5)cc4)C3SC2)n1 (stereo not shown) [Example 113] | 0.0625 to 0.078 (≈ 0.109 to 0.136 µM) | 0.196 to 6.25 (≈ 0.343 to 10.9 µM) | 0.000391 to 0.0078 (≈ 0.000684 to 0.0136 µM) | 0.156 to 0.391 (≈ 0.273 to 0.684 µM)
O=C(Cc1ccc(C2=NCCN2)cc1)NC1C(=O)N2C(C(=O)O)=C(CSc3nc(-c4ccccc4)cs3)CSC12 (stereo not shown) [Example 117, 3-[(4-phenyl-thiazole-2-yl)-thiomethyl]-7-[4-(imidazoline-2-yl)-phenylacetamido]-Δ3-cephem-4-carboxylic acid] | 0.0625 to 0.078 (≈ 0.106 to 0.132 µM) | 10 to 50 (≈ 16.9 to 84.5 µM) | 0.000391 to 0.0078 (≈ 0.000661 to 0.0132 µM) | 0.5 to 1.25 (≈ 0.845 to 2.11 µM)
CCc1nnc(SCC2=C(C(=O)O)N3C(=O)C(NC(=O)Cc4ccc(C(=N)N)cc4)C3SC2)s1 (stereo not shown) [Example 122, 3-[(5-ethyl-1,3,4-thiadiazole-2-yl)-thiomethyl]-7-(4-amidino-phenylacetamido)-Δ3-cephem-4-carboxylic acid] | 0.0625 to 0.078 (≈ 0.121 to 0.15 µM) | 10 to 50 (≈ 19.3 to 96.4 µM) | 0.008 to 0.0156 (≈ 0.0154 to 0.0301 µM) | 0.5 to 1.25 (≈ 0.964 to 2.41 µM)
O=C(Cc1ccc(C2=NCCCN2)cc1)NC1C(=O)N2C(C(=O)O)=C(CSc3nnc(-c4ccccc4)s3)CSC12 (stereo not shown) [Example 80, 3-[(5-phenyl-1,3,4,-thiadiazole-2-yl)-thiomethyl]-7-[4-(1,4,5,6-tetrahydropyrimide-2-yl)-phenylacetamido]-Δ 3-cephem-4-carboxylic acid] | 0.0625 to 0.078 (≈ 0.103 to 0.129 µM) | 10 to 50 (≈ 16.5 to 82.4 µM) | 0.000391 to 0.0078 (≈ 0.000644 to 0.0129 µM) | 0.156 to 0.391 (≈ 0.257 to 0.644 µM)
COc1cc(C(=N)N)ccc1OCC(=O)NC1C(=O)N2C(C(=O)O)=C(CSc3nnc(C)s3)CSC12 (stereo not shown) [Example 128, 3-[(5-methyl-1,3,4-thiadizole-2-yl)-thiomethyl]-7(4-amidino-2-methoxy-phenoxy-acetamido)-Δ3-cephem-4-carboxylic acid] | 0.0625 to 0.078 (≈ 0.114 to 0.142 µM) | – | 0.008 to 0.0156 (≈ 0.0145 to 0.0283 µM) | 0.156 to 0.391 (≈ 0.283 to 0.71 µM)

The next lines start with the values.

MIC [1] [mg/L] | MIC (Streptococcus D) [mg/L] | MIC (Streptococcus pyogenes A) [mg/L] | MIC [2] [mg/L] | SMILES
0.0625 to 0.078 (≈ 0.116 to 0.145 µM) | – | 0.000391 to 0.0078 (≈ 0.000729 to 0.0145 µM) | 0.156 to 0.391 (≈ 0.291 to 0.729 µM) | COc1cc(C(=N)N)ccc1OCC(=O)NC1C(=O)N2C(C(=O)O)=C(CSc3nncs3)CSC12 (stereo not shown) [Example 127]
0.0625 to 0.078 (≈ 0.109 to 0.136 µM) | 0.196 to 6.25 (≈ 0.343 to 10.9 µM) | 0.000391 to 0.0078 (≈ 0.000684 to 0.0136 µM) | 0.156 to 0.391 (≈ 0.273 to 0.684 µM) | CC(C)(C)c1csc(SCC2=C(C(=O)O)N3C(=O)C(NC(=O)Cc4ccc(C5=NCCN5)cc4)C3SC2)n1 (stereo not shown) [Example 111, 3-[(4-tert.butyl-thiazole-2-yl)-thiomethyl]-7-[-4-(imidazoline-2-yl)-phenylacetamido]-Δ3-cephem-4-carboxylic acid]
0.0625 to 0.078 (≈ 0.11 to 0.137 µM) | 10 to 50 (≈ 17.6 to 87.9 µM) | 0.000391 to 0.0078 (≈ 0.000688 to 0.0137 µM) | 0.156 to 0.391 (≈ 0.274 to 0.688 µM) | O=C(Cc1ccc(C2=NCCCN2)cc1)NC1C(=O)N2C(C(=O)O)=C(CSc3ccc([N+](=O)[O-])cn3)CSC12 (stereo not shown) [Example 105, 3-[(5-nitropyridine-2-yl)-thiomethyl]-7-[4-(1,4,5,6-tetrahydropyrimide-2-yl)-phenylacetamido]-Δ3-cephem-4-carboxylic acid]
0.0625 to 0.078 (≈ 0.117 to 0.146 µM) | – | 0.000391 to 0.0078 (≈ 0.000733 to 0.0146 µM) | 0.156 to 0.391 (≈ 0.292 to 0.733 µM) | N=C(N)c1ccc(CC(=O)NC2C(=O)N3C(C(=O)O)=C(CSc4ccc5ccccc5n4)CSC23)cc1 (stereo not shown) [Example 91, 3-quinoline[-2-yl-thiomethyl]-7-[4-amidino-phenyl-acetamido]-Δ 3-cephem-4-carboxylic acid]
– | 10 to 50 (≈ 16.1 to 80.5 µM) | 0.008 to 0.0156 (≈ 0.0129 to 0.0251 µM) | 0.5 to 1.25 (≈ 0.805 to 2.01 µM) | O=C(Cc1ccc(C2=NCCCN2)cc1)NC1C(=O)N2C(C(=O)O)=C(CSC3=NNC(c4ccccc4)=CS3)CSC12 (stereo not shown) [Example 99, 3-[(5-phenyl-4H-1,3,4-thiadiazine-2-yl)-thiomethyl]-7[4-(1,4,5,6-tetrahydropyrimide-2-yl)-phenylacetamido]-Δ3-cephem-4-carboxylic acid]
